Results: ChEMBL document CHEMBL1201862, “PubChem BioAssay data set” (2004)
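Results reflect a 48-hour exposure of cells in 96-well plates to compound at five concentrations. Abbreviation: GI50, concentration required for 50% inhibition of growth.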 Activity calls are given as the source filed them. No stated cut-off is given here; in the data, active = GI50 up to about 1.1 µM and inactive = higher.

Experiments:
Test in all cases: inhibition of tumour cell growth, NCI panel, 48 h
[1] = system: HOP-62
[2] = system: NCI/ADR-RES
[3] = system: T47D
[4] = system: LOX IMVI
[5] = system: NCI-H23
[6] = system: SF-268
[7] = system: TK-10
[8] = system: SNB-19
[9] = system: M14
[10] = system: OVCAR-5
[11] = system: NCI-H522
[12] = system: EKVX
[13] = system: IGROV-1
[14] = system: NCI-H226
[15] = system: SK-OV-3
[16] = system: SN12C
[17] = system: Hs-578T
[18] = system: MDA-N
[19] = system: HCT-116
[20] = system: MCF7
[21] = system: U-251
[22] = system: CAKI-1
[23] = system: OVCAR-3
[24] = system: Malme-3M
[25] = system: MDA-MB-231
[26] = system: 786-0
[27] = system: RXF 393
[28] = system: ACHN
[29] = system: A549
[30] = system: OVCAR-8
[31] = system: MDA-MB-435
[32] = system: UACC-257
[33] = system: SF-539
[34] = system: SW-620
[35] = system: NCI-H460
[36] = system: A498
[37] = system: SK-MEL-5
[38] = system: SF-295
[39] = system: HCT-15
[40] = system: KM12
[41] = system: UACC-62
[42] = system: BT-549
[43] = system: DU-145
[44] = system: COLO 205
[45] = system: UO-31
[46] = system: SK-MEL-2
[47] = system: K562
[48] = system: CCRF-CEM
[49] = system: RPMI-8226
[50] = system: PC-3
[51] = system: OVCAR-4
[52] = system: MOLT-4
[53] = system: HCC 2998
[54] = system: SK-MEL-28
[55] = system: SNB-75
[56] = system: HT-29
[57] = system: HOP-92
[58] = system: HL-60

C=C(CCC=C(C)C)C1CC=C(C)CC1 (stereo unspecified)
GI50 [1]: 16.3 µM (inactive) | GI50 [2]: 35.6 µM (inactive) | GI50 [3]: 28.1 µM (inactive) | GI50 [4]: 5.48 µM (inactive) | GI50 [5]: 17.7 µM (inactive) | GI50 [6]: 28.8 µM (inactive) | GI50 [7]: 38.5 µM (inactive) | GI50 [8]: > 100 µM (inactive) | GI50 [9]: 62.4 µM (inactive) | GI50 [10]: > 100 µM (inactive) | GI50 [11]: 16.4 µM (inactive) | GI50 [12]: 29.2 µM (inactive) | GI50 [13]: 13.6 µM (inactive) | GI50 [14]: > 100 µM (inactive) | GI50 [15]: > 100 µM (inactive) | GI50 [16]: 19.7 µM (inactive) | GI50 [17]: 20.9 µM (inactive) | GI50 [18]: 18.5 µM (inactive) | GI50 [19]: 19.4 µM (inactive) | GI50 [20]: 19.8 µM (inactive) | GI50 [21]: 18 µM (inactive) | GI50 [22]: 19.7 µM (inactive) | GI50 [23]: 29.5 µM (inactive) | GI50 [24]: > 100 µM (inactive) | GI50 [25]: 30.6 µM (inactive) | GI50 [26]: 17.1 µM (inactive) | GI50 [27]: 13.9 µM (inactive) | GI50 [28]: 17.8 µM (inactive) | GI50 [29]: 19.5 µM (inactive) | GI50 [30]: 36 µM (inactive) | GI50 [31]: 18.2 µM (inactive) | GI50 [32]: > 100 µM (inactive) | GI50 [33]: 25.9 µM (inactive) | GI50 [34]: 22.9 µM (inactive) | GI50 [35]: 19.3 µM (inactive) | GI50 [36]: > 100 µM (inactive) | GI50 [37]: 16.6 µM (inactive) | GI50 [38]: 19.9 µM (inactive) | GI50 [39]: 18.2 µM | GI50 [40]: 19 µM (inactive) | GI50 [41]: 36.9 µM (inactive) | GI50 [42]: 95.7 µM (inactive) | GI50 [43]: 23.2 µM (inactive) | GI50 [44]: 26.4 µM (inactive) | GI50 [45]: 16.4 µM (inactive) | GI50 [46]: 17.7 µM (inactive)

O=c1ccc2c(Cl)sc(Cl)c2[nH]1
GI50 [1]: > 100 µM (inactive) | GI50 [2]: > 100 µM (inactive) | GI50 [3]: > 100 µM (inactive) | GI50 [4]: > 100 µM (inactive) | GI50 [5]: > 100 µM (inactive) | GI50 [47]: > 100 µM (inactive) | GI50 [6]: > 100 µM (inactive) | GI50 [7]: > 100 µM (inactive) | GI50 [8]: > 100 µM (inactive) | GI50 [9]: > 100 µM (inactive) | GI50 [10]: > 100 µM (inactive) | GI50 [11]: 92.9 µM (inactive) | GI50 [12]: 98.4 µM (inactive) | GI50 [13]: > 100 µM (inactive) | GI50 [48]: > 100 µM (inactive) | GI50 [15]: > 100 µM (inactive) | GI50 [16]: > 100 µM (inactive) | GI50 [49]: > 100 µM (inactive) | GI50 [17]: 35.2 µM (inactive) | GI50 [18]: > 100 µM (inactive) | GI50 [50]: > 100 µM (inactive) | GI50 [19]: > 100 µM (inactive) | GI50 [20]: > 100 µM (inactive) | GI50 [21]: > 100 µM (inactive) | GI50 [22]: > 100 µM (inactive) | GI50 [23]: > 100 µM (inactive) | GI50 [24]: 43.8 µM (inactive) | GI50 [25]: > 100 µM (inactive) | GI50 [26]: > 100 µM (inactive) | GI50 [27]: > 100 µM (inactive) | GI50 [51]: > 100 µM (inactive) | GI50 [52]: > 100 µM (inactive) | GI50 [53]: > 100 µM (inactive) | GI50 [28]: > 100 µM (inactive) | GI50 [29]: > 100 µM (inactive) | GI50 [30]: > 100 µM (inactive) | GI50 [31]: > 100 µM (inactive) | GI50 [54]: > 100 µM (inactive) | GI50 [32]: > 100 µM (inactive) | GI50 [34]: > 100 µM (inactive) | GI50 [35]: > 100 µM (inactive) | GI50 [38]: > 100 µM (inactive) | GI50 [39]: > 100 µM | GI50 [40]: > 100 µM (inactive) | GI50 [41]: > 100 µM (inactive) | GI50 [42]: > 100 µM (inactive) | GI50 [55]: > 100 µM (inactive) | GI50 [43]: > 100 µM (inactive) | GI50 [45]: > 100 µM (inactive) | GI50 [46]: > 100 µM (inactive) | GI50 [56]: > 100 µM (inactive)

Cc1ccsc1/C=N/Nc1cnccn1
GI50 [1]: > 100 µM (inactive) | GI50 [2]: > 100 µM (inactive) | GI50 [3]: > 100 µM (inactive) | GI50 [4]: 76.4 µM (inactive) | GI50 [5]: > 100 µM (inactive) | GI50 [47]: > 100 µM (inactive) | GI50 [6]: > 100 µM (inactive) | GI50 [7]: > 100 µM (inactive) | GI50 [8]: > 100 µM (inactive) | GI50 [9]: > 100 µM (inactive) | GI50 [10]: 94 µM (inactive) | GI50 [12]: 63.5 µM (inactive) | GI50 [13]: 40.1 µM (inactive) | GI50 [14]: > 100 µM (inactive) | GI50 [48]: > 100 µM (inactive) | GI50 [15]: > 100 µM (inactive) | GI50 [16]: > 100 µM (inactive) | GI50 [49]: > 100 µM (inactive) | GI50 [17]: > 100 µM (inactive) | GI50 [50]: > 100 µM (inactive) | GI50 [19]: > 100 µM (inactive) | GI50 [20]: 3.53 µM (inactive) | GI50 [21]: > 100 µM (inactive) | GI50 [22]: > 100 µM (inactive) | GI50 [23]: > 100 µM (inactive) | GI50 [24]: > 100 µM (inactive) | GI50 [57]: > 100 µM (inactive) | GI50 [25]: > 100 µM (inactive) | GI50 [26]: > 100 µM (inactive) | GI50 [27]: > 100 µM (inactive) | GI50 [51]: > 100 µM (inactive) | GI50 [52]: 78.7 µM (inactive) | GI50 [53]: > 100 µM (inactive) | GI50 [58]: 35.9 µM (inactive) | GI50 [28]: > 100 µM (inactive) | GI50 [29]: > 100 µM (inactive) | GI50 [30]: 27.4 µM (inactive) | GI50 [31]: > 100 µM (inactive) | GI50 [54]: > 100 µM (inactive) | GI50 [32]: > 100 µM (inactive) | GI50 [34]: > 100 µM (inactive) | GI50 [36]: 62.4 µM (inactive) | GI50 [37]: > 100 µM (inactive) | GI50 [38]: > 100 µM (inactive) | GI50 [39]: > 100 µM | GI50 [40]: 99.5 µM (inactive) | GI50 [41]: > 100 µM (inactive) | GI50 [42]: > 100 µM (inactive) | GI50 [55]: > 100 µM (inactive) | GI50 [43]: > 100 µM (inactive) | GI50 [44]: > 100 µM (inactive) | GI50 [45]: > 100 µM (inactive) | GI50 [46]: > 100 µM (inactive) | GI50 [56]: 76.9 µM (inactive)
